Source: EP2027850A1, “Pharmaceutical compositions containing voriconazole” (SANDOZ AG, priority 2007, dated 2009)

Assay: solubility of voriconazole in N-methylpyrrolidone and water / NMP mixtures
Format: physicochemical
Protocol: This can also be used to improve the solubility of voriconazole in aqueous solutions.
0.210 g Voriconazole are dissolved in 50 mL N-Methylpyrrolidone (NMP) using a magnetic stirrer. Further aliquots of 0.305 g, 0.519 g and 1.009 Voriconazole are added to NMP-solution using magnet stirring. Solution I is obtained, composed of […] Voriconazole in 50 mL NMP.
0.45 - 0.55 g Voriconazole are dissolved in NMP according to example 1. After obtaining a clear solution, solutions are made up with water to 20.0 mL.
Therefore, in 20 mL solution, 0.5 g Voriconazole can be dissolved with water / NMP mixtures.

- solubility in N-methylpyrrolidone: extremely high
SMILES: C[C@@H](c1ncncc1F)[C@](O)(Cn1cncn1)c1ccc(F)cc1F [Voriconazole, (2R,3S)-2-(2,4-Difluorophenyl)-3-(5-fluoro-4-pyrimidinyl)-1-(1H-1,2,4-triazol-1-yl)-butan-2-ol]
